EC50 data for 3 compounds are collected here from BindingDB's records for doi:10.1021/acsmedchemlett.0c00340 (California Institute of Technology, 2020).

The term EC50 denotes the concentration giving half of the maximal effect.

This assay can be described thus: Positive allosteric modulator activity at human alpha1beta2S GABA-A receptor expressed in Xenopus laevis oocytes assessed as change in GABA EC50 at 40 uM by two electrode voltage-clamp assay. For orientation: Two-electrode voltage clamp is typically applied to oocytes expressing channels or transporters.
In the case of `CN1CC[C@]2(O)c3ccccc3N(C)[C@]12c1ccccc1`, the EC50 came out at 13 µM.

`CN1CC[C@]2(O)c3cc(I)ccc3N(C)[C@]12c1ccccc1`: the EC50 was found to be 9 µM.

Turning to `CN1CC[C@]2(O)c3cc(Br)ccc3N(C)[C@]12c1ccccc1`, the EC50 came out at 16 µM.
